Earlier results, collected in patent US6620446B2, “Antibacterial composition for control of gram positive bacteria in food applications” (Rhodia, Inc., priority 2000, dated 2003).

Tested on: L. monocytogenes
Settings: reported by M. Doyle, Food Technology 1988

**Q.** Which “initial inhibition of the organism's growth, duration” value does the source give for nisin here?
**A.** about 12 hours
